Where “and” joins values, the source holds several entries; their conditions need not be identical. Equal values may be shown once. Entries after “also recorded” stand apart in the source; their conditions may differ.
Experiments:
recalcitrant soybean = experiment: Regeneration frequency / transformation efficiency of recalcitrant soybean; type: cell-based; settings: 100 nM GmREF1 vs control in absence of GmREF1
Description: (a) photos of control recalcitrant soybean and PRR+RER overexpressing (OE) recalcitrant soybean grown in the presence of 50 nM gmREF1, 100 nM GmREF1 or a vehicle only control (mock). (b) relative regeneration frequency of control recalcitrant soybean and PRR+RER overexpressing (OE) recalcitrant soybean grown in the presence of 50 nM GmREF1, 100 nM GmREF1 or a absence of REF1 (mock).

[1] = test system: Williams 82 soybean cultivar; experiment: Transformation efficiency of soybean (reporter gene A); type: cell-based
Description: By “transformation efficiency” is meant the capacity of an organism to take up and incorporate exogenous DNA such as plasmids during transformation. Transformation efficiency is calculated by dividing the number of transformants by the total number of organisms subjected to the transformation process and multiplying this by 100 to obtain a percentage.
The soybean gene A was transformed into the Williams 82 soybean cultivar and treated with 100 nM GmREF1 or a control. Gene A is a transcription factor gene which is used as a reporter for transformation efficiency. […]

soybean explants = experiment: Shoot regeneration of soybean explants; type: cell-based, Glycine max
Description: The relative regeneration capacity was represented by the relative frequency of explants with the regenerated shoots. Data are mean±SD of three independent experiments. Bars show mean±SD. ***P<0.001, **P<0.01, *P<0.05 (Student's t-test).
Soybean explants were cultured on medium containing indicated concentrations of REF1. Shoot regeneration was scored 21 days after incubation.

cucumber leaf explants = experiment: Shoot regeneration of cucumber leaf explants; type: cell-based; settings: 10 nM CsREF1 vs untreated control explants, 21 d
Description: FIG. 46—Leaf explants were cultured on medium containing indicated concentrations of CsREF1. Shoot regeneration was scored at 21 d after incubation. The shoot regenerative capacity was represented by the number of regenerated shoots per explant. Data are mean±SD of three independent experiments. Bars show mean±SD. ***P<0.001, **P<0.01, *P<0.05 (Student's t-test).
Leaf explants were cultured on a medium containing 10 nM CsREF1.

[2] = 100 nM GmREF1, three experiments

Row | Sequence | regeneration frequency, increase (recalcitrant soybean) | Regenerated shoots carrying the reporter gene [1, 2] | Transformation efficiency (%) [1, 2] | transformation efficiency ([1]; 100 nM GmREF1 vs control) | relative regeneration frequency, increase (soybean explants; 10 nM GmREF1 vs absence) | relative regeneration frequency, increase (soybean explants; 20 nM GmREF1 vs absence) | relative regeneration frequency, increase (soybean explants; 50 nM GmREF1 vs absence) | shoot regeneration / regenerative capacity (soybean explants; presence vs absence of GmREF1) | shoot regenerative capacity (cucumber leaf explants)
1 | GSVVVLQTKRKHDGGKGRDPQTN (Glycine max) [GmREF1] | ~ 12 fold | 177 and 156 and 200 | 64.1% and 73.9% and 72.9% | improves transformation efficiency; also recorded: greater | ~ 2.1 fold | ~ 2.8 fold | ~ 3.8 fold | increases the regenerative capacity; also recorded: promotes shoot regeneration | 
2 | YKLEGELQKRFEDLLKTTTDNDIPRGGNY (listed as Cucumis sativus) [CsREF1] |  |  |  |  |  |  |  |  | significantly increased

Reference: patent publication US20260265771A1, “METHODS OF INCREASING THE REGENERATION EFFICIENCY IN PLANTS” (Institute of Genetics and Developmental Biology Chinese …, priority 2022, published 2026)
